Results taken from ChEMBL document CHEMBL3769326, “Discovery of fluoroquinolone derivatives as potent, selective inhibitors of PI3K” (Medchemcomm, 2015).
pIC50: −log10 of the molar value.

Key:
[1] = target: Phosphatidylinositol 4,5-bisphosphate 3-kinase catalytic subunit gamma isoform (Homo sapiens, UniProt P48736); test: Inhibition of human PI3K 110gamma by fluorescence-based immunoassay
[2] = target: PI3-kinase p110-alpha/p85-alpha (Homo sapiens, UniProt P42336); test: Inhibition of human PI3K p110alpha/p85alpha by fluorescence-based immunoassay; type: protein-complex assay
[3] = target: T1, Phosphatidylinositol 4,5-bisphosphate 3-kinase catalytic subunit delta isoform (Homo sapiens, UniProt O00329); test: Inhibition of human PI3Kdelta by fluorescence-based immunoassay
T1 sequence (O00329 whole entry): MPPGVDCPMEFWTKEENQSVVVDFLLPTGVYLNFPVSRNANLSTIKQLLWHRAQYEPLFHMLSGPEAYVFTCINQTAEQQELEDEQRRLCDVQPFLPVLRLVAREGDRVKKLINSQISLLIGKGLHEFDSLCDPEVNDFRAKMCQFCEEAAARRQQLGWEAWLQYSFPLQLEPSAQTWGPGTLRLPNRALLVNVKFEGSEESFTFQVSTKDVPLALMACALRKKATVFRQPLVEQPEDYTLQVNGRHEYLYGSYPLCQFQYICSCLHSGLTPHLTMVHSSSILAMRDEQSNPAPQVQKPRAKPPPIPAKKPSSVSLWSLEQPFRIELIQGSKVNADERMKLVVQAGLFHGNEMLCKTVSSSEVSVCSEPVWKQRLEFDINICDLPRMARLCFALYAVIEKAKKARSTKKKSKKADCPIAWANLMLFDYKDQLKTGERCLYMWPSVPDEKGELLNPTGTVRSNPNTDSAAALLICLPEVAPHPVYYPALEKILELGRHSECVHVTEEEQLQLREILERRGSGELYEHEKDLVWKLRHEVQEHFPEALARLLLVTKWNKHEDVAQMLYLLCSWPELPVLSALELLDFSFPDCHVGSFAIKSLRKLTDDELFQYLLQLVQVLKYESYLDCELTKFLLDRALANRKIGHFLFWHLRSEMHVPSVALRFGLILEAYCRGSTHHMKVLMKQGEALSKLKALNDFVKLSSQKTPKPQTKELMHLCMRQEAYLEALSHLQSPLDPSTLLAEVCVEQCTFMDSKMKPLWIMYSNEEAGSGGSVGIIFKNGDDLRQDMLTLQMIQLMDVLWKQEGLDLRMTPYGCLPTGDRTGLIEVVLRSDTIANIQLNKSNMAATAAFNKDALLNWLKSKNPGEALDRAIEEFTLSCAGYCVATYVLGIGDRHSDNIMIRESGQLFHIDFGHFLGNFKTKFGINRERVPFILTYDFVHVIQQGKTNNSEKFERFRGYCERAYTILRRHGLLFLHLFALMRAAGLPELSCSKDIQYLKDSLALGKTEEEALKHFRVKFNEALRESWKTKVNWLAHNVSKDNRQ

HeLa = test: Antiproliferative activity against human HeLa cells after 72 hrs by MTT assay; type: functional, cell-based
A549 = test: Antiproliferative activity against human A549 cells after 72 hrs by MTT assay; type: functional, cell-based; settings: A549, 72 h
[4] = target: Phosphatidylinositol 3-kinase regulatory subunit beta/Phosphatidylinositol 4,5-bisphosphate 3-kinase catalytic subunit beta isoform (Homo sapiens, UniProt P42338); test: Inhibition of human PI3K p110beta/p85beta by fluorescence-based immunoassay; type: protein-complex assay
MCF7 = test: cells; settings: Homo sapiens, MCF7, 72 h
HepG2 = test: cells; settings: Homo sapiens, HepG2, 72 h
[5] = Cytotoxicity against macrophages after 72 hrs by MTT assay; type: cell-based, Macrophage

Chain of Phosphatidylinositol 4,5-bisphosphate 3-kinase catalytic subunit gamma isoform (P48736 whole entry, canonical isoform): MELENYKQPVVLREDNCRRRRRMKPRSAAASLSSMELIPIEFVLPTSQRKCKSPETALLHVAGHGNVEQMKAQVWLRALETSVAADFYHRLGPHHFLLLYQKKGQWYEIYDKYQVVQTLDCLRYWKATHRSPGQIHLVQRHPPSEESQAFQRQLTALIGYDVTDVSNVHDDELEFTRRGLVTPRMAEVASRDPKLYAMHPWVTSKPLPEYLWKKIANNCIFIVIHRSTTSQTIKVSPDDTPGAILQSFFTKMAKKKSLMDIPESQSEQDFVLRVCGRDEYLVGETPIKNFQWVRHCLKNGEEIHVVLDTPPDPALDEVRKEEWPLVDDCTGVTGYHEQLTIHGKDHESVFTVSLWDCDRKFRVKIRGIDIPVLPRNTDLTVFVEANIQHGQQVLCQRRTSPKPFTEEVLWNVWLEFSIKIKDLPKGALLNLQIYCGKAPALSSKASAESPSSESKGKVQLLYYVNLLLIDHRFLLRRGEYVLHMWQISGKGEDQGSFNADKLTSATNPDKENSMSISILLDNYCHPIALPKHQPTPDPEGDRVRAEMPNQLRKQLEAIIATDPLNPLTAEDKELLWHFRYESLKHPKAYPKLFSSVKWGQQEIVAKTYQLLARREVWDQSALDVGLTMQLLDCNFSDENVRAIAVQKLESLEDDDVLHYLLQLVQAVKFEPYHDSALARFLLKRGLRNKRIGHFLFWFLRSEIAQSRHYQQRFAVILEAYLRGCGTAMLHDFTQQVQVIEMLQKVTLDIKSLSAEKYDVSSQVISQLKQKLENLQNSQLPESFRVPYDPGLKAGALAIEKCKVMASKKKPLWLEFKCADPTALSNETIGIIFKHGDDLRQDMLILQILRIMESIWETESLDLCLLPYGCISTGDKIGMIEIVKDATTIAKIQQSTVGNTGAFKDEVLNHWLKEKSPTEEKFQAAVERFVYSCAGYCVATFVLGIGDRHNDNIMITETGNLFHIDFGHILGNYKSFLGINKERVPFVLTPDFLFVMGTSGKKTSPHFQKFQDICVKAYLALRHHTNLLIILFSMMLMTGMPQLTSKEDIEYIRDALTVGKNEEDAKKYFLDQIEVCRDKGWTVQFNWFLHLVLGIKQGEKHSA
Chain of PI3-kinase p110-alpha/p85-alpha (P27986 whole entry, canonical isoform): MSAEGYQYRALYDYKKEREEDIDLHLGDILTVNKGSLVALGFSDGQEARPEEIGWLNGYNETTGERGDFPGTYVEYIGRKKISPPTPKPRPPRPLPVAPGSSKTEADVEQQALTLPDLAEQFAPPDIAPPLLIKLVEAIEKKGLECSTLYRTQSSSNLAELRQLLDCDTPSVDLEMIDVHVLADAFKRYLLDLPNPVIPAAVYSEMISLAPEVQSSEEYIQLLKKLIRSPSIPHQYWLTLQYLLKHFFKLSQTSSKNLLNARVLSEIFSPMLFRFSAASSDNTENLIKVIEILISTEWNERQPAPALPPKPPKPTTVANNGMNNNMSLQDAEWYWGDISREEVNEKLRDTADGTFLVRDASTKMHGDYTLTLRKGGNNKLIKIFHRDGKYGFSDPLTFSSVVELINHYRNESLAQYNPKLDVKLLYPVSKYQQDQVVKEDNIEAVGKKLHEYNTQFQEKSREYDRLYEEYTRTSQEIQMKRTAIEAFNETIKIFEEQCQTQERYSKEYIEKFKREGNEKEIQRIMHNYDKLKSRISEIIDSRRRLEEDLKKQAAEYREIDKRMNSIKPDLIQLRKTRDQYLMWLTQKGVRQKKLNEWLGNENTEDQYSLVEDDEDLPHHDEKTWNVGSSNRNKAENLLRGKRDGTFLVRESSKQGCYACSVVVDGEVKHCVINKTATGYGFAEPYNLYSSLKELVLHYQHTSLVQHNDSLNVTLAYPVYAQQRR
Chain of PI3-kinase p110-alpha/p85-alpha (P42336 whole entry, canonical isoform): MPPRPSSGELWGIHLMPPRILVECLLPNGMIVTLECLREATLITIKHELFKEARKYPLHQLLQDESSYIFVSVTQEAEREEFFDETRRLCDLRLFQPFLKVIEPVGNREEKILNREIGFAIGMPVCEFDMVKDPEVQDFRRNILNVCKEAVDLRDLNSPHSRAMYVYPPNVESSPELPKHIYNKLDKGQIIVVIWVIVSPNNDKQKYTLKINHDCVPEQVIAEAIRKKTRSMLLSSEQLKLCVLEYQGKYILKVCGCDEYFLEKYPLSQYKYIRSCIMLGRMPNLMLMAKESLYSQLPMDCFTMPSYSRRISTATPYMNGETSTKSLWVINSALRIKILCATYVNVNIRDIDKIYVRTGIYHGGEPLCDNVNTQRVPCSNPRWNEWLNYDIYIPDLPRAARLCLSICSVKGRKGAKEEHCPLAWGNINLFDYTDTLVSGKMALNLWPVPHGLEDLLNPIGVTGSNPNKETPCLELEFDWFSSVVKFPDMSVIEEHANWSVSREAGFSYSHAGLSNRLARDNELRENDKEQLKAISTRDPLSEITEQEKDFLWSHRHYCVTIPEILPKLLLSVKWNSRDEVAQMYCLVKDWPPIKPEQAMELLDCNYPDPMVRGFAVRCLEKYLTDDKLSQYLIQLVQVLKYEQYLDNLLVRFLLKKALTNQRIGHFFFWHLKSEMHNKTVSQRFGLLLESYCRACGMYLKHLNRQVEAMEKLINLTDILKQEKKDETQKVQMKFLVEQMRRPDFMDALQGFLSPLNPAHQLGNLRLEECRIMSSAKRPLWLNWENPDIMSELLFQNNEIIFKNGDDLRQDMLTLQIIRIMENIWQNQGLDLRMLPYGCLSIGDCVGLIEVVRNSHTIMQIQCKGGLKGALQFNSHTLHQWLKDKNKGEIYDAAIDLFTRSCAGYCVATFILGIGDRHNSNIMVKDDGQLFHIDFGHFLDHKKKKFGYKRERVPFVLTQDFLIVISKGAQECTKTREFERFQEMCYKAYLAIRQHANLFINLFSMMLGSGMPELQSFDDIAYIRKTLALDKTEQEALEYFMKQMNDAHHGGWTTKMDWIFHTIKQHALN
Chain of Phosphatidylinositol 3-kinase regulatory subunit beta/Phosphatidylinositol 4,5-bisphosphate 3-kinase catalytic subunit beta isoform (P42338 whole entry, canonical isoform): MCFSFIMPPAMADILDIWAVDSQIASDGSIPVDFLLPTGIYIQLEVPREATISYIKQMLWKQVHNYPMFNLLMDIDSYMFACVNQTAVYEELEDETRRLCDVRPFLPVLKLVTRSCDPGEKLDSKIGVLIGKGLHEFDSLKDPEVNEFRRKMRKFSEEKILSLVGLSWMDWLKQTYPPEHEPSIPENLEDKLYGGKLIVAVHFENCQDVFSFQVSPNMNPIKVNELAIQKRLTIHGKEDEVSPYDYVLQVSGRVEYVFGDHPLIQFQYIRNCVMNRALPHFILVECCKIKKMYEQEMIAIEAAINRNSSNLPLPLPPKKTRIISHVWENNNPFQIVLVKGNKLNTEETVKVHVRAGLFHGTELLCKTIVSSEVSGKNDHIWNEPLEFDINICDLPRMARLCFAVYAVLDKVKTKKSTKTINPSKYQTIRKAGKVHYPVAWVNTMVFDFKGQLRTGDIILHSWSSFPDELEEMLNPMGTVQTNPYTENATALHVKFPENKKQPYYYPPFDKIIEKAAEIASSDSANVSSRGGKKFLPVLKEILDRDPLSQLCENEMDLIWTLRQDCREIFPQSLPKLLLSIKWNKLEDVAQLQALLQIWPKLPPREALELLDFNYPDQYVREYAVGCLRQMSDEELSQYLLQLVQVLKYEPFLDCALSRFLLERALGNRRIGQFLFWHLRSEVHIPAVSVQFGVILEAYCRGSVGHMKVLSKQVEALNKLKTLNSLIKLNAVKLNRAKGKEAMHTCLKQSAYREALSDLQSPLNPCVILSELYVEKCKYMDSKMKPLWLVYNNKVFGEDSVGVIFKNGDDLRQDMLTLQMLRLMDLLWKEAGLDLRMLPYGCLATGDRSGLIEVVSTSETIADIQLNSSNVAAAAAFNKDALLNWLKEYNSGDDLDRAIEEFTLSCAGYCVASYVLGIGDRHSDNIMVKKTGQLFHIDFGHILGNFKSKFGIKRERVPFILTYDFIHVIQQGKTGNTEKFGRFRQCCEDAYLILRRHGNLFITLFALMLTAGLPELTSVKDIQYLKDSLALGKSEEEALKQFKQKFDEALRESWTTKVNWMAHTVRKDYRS
Chain of Phosphatidylinositol 3-kinase regulatory subunit beta/Phosphatidylinositol 4,5-bisphosphate 3-kinase catalytic subunit beta isoform (O00459 whole entry, further chain, canonical isoform): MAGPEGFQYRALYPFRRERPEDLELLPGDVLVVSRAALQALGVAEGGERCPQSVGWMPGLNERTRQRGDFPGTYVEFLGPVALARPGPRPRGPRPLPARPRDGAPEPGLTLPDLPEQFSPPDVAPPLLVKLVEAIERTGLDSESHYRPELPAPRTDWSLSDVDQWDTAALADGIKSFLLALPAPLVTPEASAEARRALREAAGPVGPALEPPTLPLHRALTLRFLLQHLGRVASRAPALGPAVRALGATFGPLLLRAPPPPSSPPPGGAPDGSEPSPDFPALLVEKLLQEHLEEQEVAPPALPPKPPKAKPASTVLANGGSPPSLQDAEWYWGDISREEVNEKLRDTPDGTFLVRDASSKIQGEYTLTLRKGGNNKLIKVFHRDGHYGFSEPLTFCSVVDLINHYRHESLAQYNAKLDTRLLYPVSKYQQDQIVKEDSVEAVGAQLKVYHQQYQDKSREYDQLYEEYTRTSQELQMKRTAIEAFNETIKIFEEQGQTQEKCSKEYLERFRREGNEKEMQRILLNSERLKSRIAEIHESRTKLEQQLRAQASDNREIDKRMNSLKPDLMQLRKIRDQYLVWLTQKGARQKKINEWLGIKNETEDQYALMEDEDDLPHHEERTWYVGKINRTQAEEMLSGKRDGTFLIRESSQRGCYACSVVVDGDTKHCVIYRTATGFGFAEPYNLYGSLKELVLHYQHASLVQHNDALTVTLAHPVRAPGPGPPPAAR

Question: Which results are given for `O=C(O)c1cn(C2CC2)c2cc(N3CCN(C(=O)c4cccnc4Cl)CC3)c(F)cc2c1=O`?
Answer: pIC50 [1]: 6.58; pIC50 [2]: < 6.00; pIC50 [3]: < 6.00; pIC50 (HeLa): 3.55; pIC50 (A549): < 3.00; pIC50 [4]: < 6.00; pIC50 (MCF7): 3.82; pIC50 (HepG2): 3.75

Question: With `CCn1cc(C(=O)O)c(=O)c2cc(F)c(N3CCN(C(=O)c4cc(OC)ccc4O)CC3)cc21` as the molecule, how does the pIC50 [1] read?
Answer: 6.95

Question: What about the pIC50 [2] of the same molecule?
Answer: 6.16

Question: And the pIC50 [3]?
Answer: 6.31

Question: What about the pIC50 (HeLa) of the same molecule?
Answer: 5.68

Question: And the pIC50 (A549)?
Answer: 5.97

Question: And the CC50 at 72 h [5]?
Answer: 279 µM

Question: And the pIC50 [4]?
Answer: < 6.00

Question: What about the pIC50 (MCF7) of the same molecule?
Answer: 5.42

Question: And the pIC50 (HepG2)?
Answer: 6.33

Question: What does the source list for `CCn1cc(C(=O)O)c(=O)c2cc(F)c(N3CCN(C(=O)c4c(C)cccc4O)CC3)cc21`?
Answer: pIC50 [1]: 6.76; pIC50 [2]: 6.04; pIC50 [3]: 6.17; pIC50 (HeLa): 4.27; pIC50 (A549): 3.92; CC50 at 72 h [5]: 343 µM; pIC50 [4]: < 6.00; pIC50 (MCF7): 3.97; pIC50 (HepG2): 4.56

Question: With `O=C(O)c1cn(C2CC2)c2cc(N3CCN(C(=O)c4cc(Br)ccc4O)CC3)c(F)cc2c1=O` as the molecule, how does the pIC50 [1] read?
Answer: 6.77

Question: And the pIC50 [2]?
Answer: 6.05

Question: And the pIC50 [3]?
Answer: 6.17

Question: And the pIC50 (HeLa)?
Answer: 4.71

Question: What about the pIC50 (A549) of the same molecule?
Answer: 4.11

Question: And the CC50 at 72 h [5]?
Answer: 289 µM

Question: What about the pIC50 [4] of the same molecule?
Answer: < 6.00

Question: What about the pIC50 (MCF7) of the same molecule?
Answer: 4.66

Question: What about the pIC50 (HepG2) of the same molecule?
Answer: 4.44

Question: Which results are given for `CCn1cc(C(=O)O)c(=O)c2cc(F)c(N3CCN(C(=O)c4cc(Br)ccc4O)CC3)cc21`?
Answer: pIC50 [1]: 6.95; pIC50 [2]: 6.16; pIC50 [3]: 6.32; pIC50 (HeLa): 6.29; pIC50 (A549): 6.00; CC50 at 72 h [5]: 266 µM; pIC50 [4]: < 6.00; pIC50 (MCF7): 5.15; pIC50 (HepG2): 5.49

Question: With `COc1ccc(C(=O)N2CCN(c3cc4c(cc3F)c(=O)c(C(=O)O)cn4C3CC3)CC2)cn1` as the molecule, how does the pIC50 [1] read?
Answer: 6.55

Question: And the pIC50 [2]?
Answer: < 6.00

Question: What about the pIC50 [3] of the same molecule?
Answer: < 6.00

Question: And the pIC50 (HeLa)?
Answer: 3.46

Question: And the pIC50 (A549)?
Answer: 3.17

Question: And the pIC50 [4]?
Answer: < 6.00

Question: What about the pIC50 (MCF7) of the same molecule?
Answer: 4.37

Question: What about the pIC50 (HepG2) of the same molecule?
Answer: 4.18

Question: Which results are given for `CC[C@H](Nc1ncnc2[nH]cnc12)c1nc2cccc(F)c2c(=O)n1-c1ccccc1` [IDELALISIB]?
Answer: pIC50 (HeLa): 6.82; pIC50 (A549): 6.48; pIC50 (MCF7): 6.11
